In patent US10407467B2, “Polymyxin derivatives and their use in combination therapy together with different antibiotics” (priority 2013, dated 2019):
Counter-ions that a name gives are not always drawn. Like-named read-outs stand apart in the source and are kept apart here.

Columns and labels:
Acinetobacter baumannii [1] = assay: MIC, compound in combination with a second agent (broth microdilution); type: cell-based; settings: 1:1 (wt:wt) combination with Rifampicin, MIC = total drug concentration
Method in brief: (§1)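 MIC values express combined concentration of test compound plus partner agent such as rifampicin, mixed at equal mass (1:1 w/w, salt-form weight). Direct colony suspensions at 0.5 McFarland, up to four strains per species, tested in duplicate; >2-fold disagreement invalid, otherwise lower value or mode of repeats reported.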

Escherichia coli [2] = assay: as above; type: cell-based; settings: 1:1 (wt:wt) combination with Rifampicin, MIC = total drug concentration
Method in brief: as §1

Klebsiella pneumoniae [3] = assay: as above; type: cell-based; settings: 1:1 (wt:wt) combination with Rifampicin; MIC = total drug concentration; strain CCUG-59348
Method in brief: as §1

Pseudomonas aeruginosa [4] = assay: as above; type: cell-based; settings: 1:1 (wt:wt) combination with Rifampicin, MIC = total drug concentration
Method in brief: as §1

Acinetobacter baumannii [5] = assay: MIC, sole activity (no second agent); type: cell-based
Method in brief: (§2)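 Up to four strains per species were tested in cation-adjusted Mueller-Hinton broth, with inoculum made by direct colony suspension from 18-24 hour Mueller-Hinton agar plates, adjusted to 0.5 McFarland. Duplicates differing by under 2-fold gave the lower value; greater spread voided the run. Values are relative to Polymyxin B.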

Escherichia coli [6] = assay: MIC, sole activity (no second agent); type: cell-based
Method in brief: as §2

Klebsiella pneumoniae [7] = assay: MIC, sole activity (no second agent); type: cell-based
Method in brief: as §2

Pseudomonas aeruginosa [8] = assay: MIC, sole activity (no second agent); type: cell-based
Method in brief: as §2

HK-2 cell line = assay: In vitro renal cell toxicity assay (resazurin reduction); type: cell-based, human
P. aeruginosa ATCC 27853 = settings: ATCC 27853, in vivo, iv, 9 h
[9] = Table 6A, no second agent, different supplier of Cation-adjusted MHB

MIC A. baumannii ATCC BAA-747 (Acinetobacter baumannii [1]; strain ATCC BAA-747): 0.125 micrograms/mL | MIC A. baumannii CCUG57249 (Acinetobacter baumannii [1]; strain CCUG57249): ≤0.06 micrograms/mL | MIC A. baumannii NCTC 13423 (Acinetobacter baumannii [1]; strain NCTC 13423): ≤0.06 micrograms/mL | MIC A. baumannii NCTC 13424 (Acinetobacter baumannii [1]; strain NCTC 13424): 0.125 micrograms/mL | MIC E. coli ATCC25922 (Escherichia coli [2]; strain ATCC25922): ≤0.06 micrograms/mL | MIC E. coli NCTC9001 (Escherichia coli [2]; strain NCTC9001): 0.125 micrograms/mL | MIC K. pneumoniae CCUG-59348 (Klebsiella pneumoniae [3]): 1 micrograms/mL | MIC P. aeruginosa ATCC 27853 (Pseudomonas aeruginosa [4]; strain ATCC 27853): 0.125 micrograms/mL | MIC P. aeruginosa ATCC CRM-9027 (Pseudomonas aeruginosa [4]; strain ATCC CRM-9027): 0.25 micrograms/mL | MIC P. aeruginosa ATCC-47 (Pseudomonas aeruginosa [4]; strain ATCC-47): 0.125 micrograms/mL | MIC P. aeruginosa CCUG 59626 (Pseudomonas aeruginosa [4]; strain CCUG 59626): 0.125 micrograms/mL | MIC A. baumannii ATCC BAA-747 (Acinetobacter baumannii [5]; [9]): 1 micrograms/mL | MIC A. baumannii NCTC 13424 (Acinetobacter baumannii [5]; [9]): 2 micrograms/mL | MIC A. baumannii ATCC13424 (Acinetobacter baumannii [5]; in the absence of Rifampicin, strain ATCC13424): 0.125 micrograms/mL | MIC A. baumannii ATCCBAA-747 (Acinetobacter baumannii [5]; in the absence of Rifampicin, strain ATCCBAA-747): 1 micrograms/mL | MIC A. baumannii CCUG57249 (Acinetobacter baumannii [5]; in the absence of Rifampicin, strain CCUG 57249): 1 micrograms/mL | MIC A. baumannii NCTC 13423 (Acinetobacter baumannii [5]; in the absence of Rifampicin, strain NCTC13423): 0.25 micrograms/mL | MIC E. coli ATCC25922 (Escherichia coli [6]; [9]): 2 micrograms/mL | MIC E. coli NCTC 13441 (Escherichia coli [6]; [9]): 2 micrograms/mL | MIC E. coli ATCC25922 (Escherichia coli [6]; in the absence of Rifampicin, strain ATCC25922): 2 micrograms/mL | MIC E. coli NCTC9001 (Escherichia coli [6]; in the absence of Rifampicin, strain NCTC9001): 4 micrograms/mL | MIC K. pneumoniae ATCC 4352 (Klebsiella pneumoniae [7]; [9]): 1 micrograms/mL | MIC K. pneumoniae ATCC BAA-2146 (Klebsiella pneumoniae [7]; [9]): 2 micrograms/mL | MIC K. pneumoniae ATCC 4352 (Klebsiella pneumoniae [7]; in the absence of Rifampicin, strain ATCC 4352): 1 micrograms/mL | MIC K. pneumoniae ATCC-BAA2146 (Klebsiella pneumoniae [7]; in the absence of Rifampicin, strain ATCC-BAA2146): 32 micrograms/mL | MIC K. pneumoniae CCUG-59348 (Klebsiella pneumoniae [7]; in the absence of Rifampicin, strain CCUG-59348): >32 micrograms/mL | MIC P. aeruginosa ATCC 27853 (Pseudomonas aeruginosa [8]; [9]): 0.25 micrograms/mL | MIC P. aeruginosa CCUG 59347 (Pseudomonas aeruginosa [8]; [9]): 0.5 micrograms/mL | MIC P. aeruginosa ATCC 27853 (Pseudomonas aeruginosa [8]; in the absence of Rifampicin, strain ATCC27853): 0.125 micrograms/mL | MIC P. aeruginosa ATCC-47 (Pseudomonas aeruginosa [8]; in the absence of Rifampicin, strain ATCC-47): 1 micrograms/mL | MIC P. aeruginosa ATCCCRM-9027 (Pseudomonas aeruginosa [8]; in the absence of Rifampicin, strain ATCCCRM-9027): 0.125 micrograms/mL | MIC P. aeruginosa CCUG 59626 (Pseudomonas aeruginosa [8]; in the absence of Rifampicin, strain CCUG 59626): ≤0.06 micrograms/mL
Structure (SMILES): CC(C)C[C@@H]1NC(=O)[C@@H](Cc2ccccc2)NC(=O)[C@H](CCN)NC(=O)[C@@H](NC(=O)[C@H](CCN)NC(=O)[C@@H](NC(=O)[C@H](CCN)NC(=O)CC(N)C2CCCCC2)C(C)O)CCNC(=O)[C@H](C(C)O)NC(=O)[C@H](CCN)NC(=O)[C@H](CCN)NC1=O (mixture of isomers) [Example 39, 3-(RS)-(3-Amino-3-cyclohexyl)propanoyl polymyxin B decapeptide, trifluoroacetate salt]
HK-2 IC50 rel to PMB (HK-2 cell line): 1.5-2 | Log reduction from vehicle (CFU/g) (P. aeruginosa ATCC 27853; 2 mg/kg): 2.56 log CFU/g | Log reduction from vehicle (CFU/g) (P. aeruginosa ATCC 27853; 4 mg/kg): 3.88 log CFU/g
